Results: PubChem BioAssay (NCI)
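How tested: cells in 96-well plates exposed to compound for 48 hours at five concentrations. TGI denotes the concentration required for complete inhibition of growth.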

How the values were obtained:
Test in all cases: NCI-60 cell line screen, 48 h
NCI-H23 lung = test system: NCI-H23 lung
CCRF-CEM leukemia = test system: CCRF-CEM leukemia
A549 NSCLC = test system: A549 NSCLC
SN12C renal = test system: SN12C renal
LOX IMVI melanoma = test system: LOX IMVI melanoma
SK-OV-3 ovarian = test system: SK-OV-3 ovarian
NCI-H522 lung = test system: NCI-H522 lung
MDA-N = test system: MDA-N
SF-539 CNS = test system: SF-539 CNS
MALME-3M melanoma = test system: MALME-3M melanoma
SNB-75 CNS = test system: SNB-75 CNS
SK-MEL-5 melanoma = test system: SK-MEL-5 melanoma
786-0 renal = test system: 786-0 renal
HCT-15 colon = test system: HCT-15 colon
EKVX NSCLC = test system: EKVX NSCLC
SW-620 colon = test system: SW-620 colon
MCF7 breast = test system: MCF7 breast
HOP-62 NSCLC = test system: HOP-62 NSCLC
SK-MEL-28 melanoma = test system: SK-MEL-28 melanoma
SF-295 CNS = test system: SF-295 CNS
HOP-92 NSCLC = test system: HOP-92 NSCLC
M14 melanoma = test system: M14 melanoma
NCI-H226 lung = test system: NCI-H226 lung
U251 CNS = test system: U251 CNS
HS 578T breast = test system: HS 578T breast
MDA-MB-231 breast = test system: MDA-MB-231 breast
OVCAR-8 ovarian = test system: OVCAR-8 ovarian
DU-145 prostate = test system: DU-145 prostate
OVCAR-3 ovarian = test system: OVCAR-3 ovarian
ACHN renal = test system: ACHN renal
IGROV1 ovarian = test system: IGROV1 ovarian
UO-31 renal = test system: UO-31 renal
SR leukemia = test system: SR leukemia
HCC-2998 colon = test system: HCC-2998 colon
HCT-116 colon = test system: HCT-116 colon
K-562 leukemia = test system: K-562 leukemia
NCI/ADR-RES ovarian = test system: NCI/ADR-RES ovarian
SNB-19 CNS = test system: SNB-19 CNS
COLO 205 colon = test system: COLO 205 colon
HT29 colon = test system: HT29 colon
BT-549 breast = test system: BT-549 breast
UACC-62 melanoma = test system: UACC-62 melanoma
MOLT-4 leukemia = test system: MOLT-4 leukemia
TK-10 renal = test system: TK-10 renal
KM12 colon = test system: KM12 colon
SF-268 CNS = test system: SF-268 CNS
OVCAR-4 ovarian = test system: OVCAR-4 ovarian
PC-3 prostate = test system: PC-3 prostate
T-47D breast = test system: T-47D breast
NCI-H460 lung = test system: NCI-H460 lung
A498 renal = test system: A498 renal
MDA-MB-435 = test system: MDA-MB-435
HL-60(TB) leukemia = test system: HL-60(TB) leukemia
CAKI-1 renal = test system: CAKI-1 renal
SK-MEL-2 melanoma = test system: SK-MEL-2 melanoma
RPMI-8226 leukemia = test system: RPMI-8226 leukemia
RXF 393 renal = test system: RXF 393 renal
UACC-257 melanoma = test system: UACC-257 melanoma
OVCAR-5 ovarian = test system: OVCAR-5 ovarian
RXF-631 renal = test system: RXF-631 renal
DMS 273 small cell lung = test system: DMS 273 small cell lung
M19-MEL melanoma = test system: M19-MEL melanoma
SNB-78 CNS = test system: SNB-78 CNS
DMS 114 small cell lung = test system: DMS 114 small cell lung

C=C(Cl)c1c(OC)cccc1OCc1ccccc1 gave a TGI (NCI-H23 lung) greater than 100 µM, a TGI (CCRF-CEM leukemia) greater than 100 µM and a TGI (A549 NSCLC) greater than 100 µM. For the same compound, the TGI (SN12C renal) was greater than 100 µM, the TGI (LOX IMVI melanoma) was greater than 100 µM and the TGI (SK-OV-3 ovarian) was greater than 100 µM. For the same compound, the TGI (NCI-H522 lung) was greater than 100 µM, the TGI (MDA-N) was greater than 100 µM and the TGI (SF-539 CNS) was greater than 100 µM. The TGI (MALME-3M melanoma) was greater than 100 µM, the TGI (SNB-75 CNS) was greater than 100 µM and the TGI (SK-MEL-5 melanoma) was greater than 100 µM. It also gave a TGI (786-0 renal) greater than 100 µM, a TGI (HCT-15 colon) greater than 100 µM and a TGI (EKVX NSCLC) greater than 100 µM. The TGI (SW-620 colon) was greater than 100 µM, the TGI (MCF7 breast) was greater than 100 µM and the TGI (HOP-62 NSCLC) was greater than 100 µM. It also gave a TGI (SK-MEL-28 melanoma) greater than 100 µM, a TGI (SF-295 CNS) greater than 100 µM and a TGI (HOP-92 NSCLC) of 78.9 µM. For the same compound, the TGI (M14 melanoma) was greater than 100 µM, the TGI (NCI-H226 lung) was greater than 100 µM and the TGI (U251 CNS) was greater than 100 µM. It also gave a TGI (HS 578T breast) greater than 100 µM, a TGI (MDA-MB-231 breast) greater than 100 µM and a TGI (OVCAR-8 ovarian) greater than 100 µM. It also gave a TGI (DU-145 prostate) greater than 100 µM, a TGI (OVCAR-3 ovarian) greater than 100 µM and a TGI (ACHN renal) greater than 100 µM. The TGI (IGROV1 ovarian) was greater than 100 µM, the TGI (UO-31 renal) was greater than 100 µM and the TGI (SR leukemia) was greater than 100 µM. It also gave a TGI (HCC-2998 colon) greater than 100 µM, a TGI (HCT-116 colon) greater than 100 µM and a TGI (K-562 leukemia) greater than 100 µM. It also gave a TGI (NCI/ADR-RES ovarian) greater than 100 µM, a TGI (SNB-19 CNS) greater than 100 µM and a TGI (COLO 205 colon) greater than 100 µM. It also gave a TGI (HT29 colon) greater than 100 µM, a TGI (BT-549 breast) greater than 100 µM and a TGI (UACC-62 melanoma) greater than 100 µM. For the same compound, the TGI (MOLT-4 leukemia) was greater than 100 µM, the TGI (TK-10 renal) was greater than 100 µM and the TGI (KM12 colon) was greater than 100 µM. It also gave a TGI (SF-268 CNS) greater than 100 µM, a TGI (OVCAR-4 ovarian) greater than 100 µM and a TGI (PC-3 prostate) greater than 100 µM. It also gave a TGI (T-47D breast) of 95.7 µM, a TGI (NCI-H460 lung) greater than 100 µM and a TGI (A498 renal) greater than 100 µM. The TGI (MDA-MB-435) was greater than 100 µM, the TGI (HL-60(TB) leukemia) was greater than 100 µM and the TGI (CAKI-1 renal) was greater than 100 µM. It also gave a TGI (SK-MEL-2 melanoma) greater than 100 µM, a TGI (RPMI-8226 leukemia) greater than 100 µM and a TGI (RXF 393 renal) of 51.9 µM. It also gave a TGI (UACC-257 melanoma) of 40.6 µM and a TGI (OVCAR-5 ovarian) greater than 100 µM.
CCN(CC)CSc1nc2ccccc2o1 was tested, and the TGI (NCI-H23 lung) was greater than 100 µM, the TGI (CCRF-CEM leukemia) was greater than 100 µM and the TGI (RXF-631 renal) was greater than 100 µM. For the same compound, the TGI (A549 NSCLC) was greater than 100 µM, the TGI (DMS 273 small cell lung) was greater than 100 µM and the TGI (SK-OV-3 ovarian) was greater than 100 µM. The TGI (NCI-H522 lung) was greater than 100 µM, the TGI (M19-MEL melanoma) was greater than 100 µM and the TGI (SNB-78 CNS) was greater than 100 µM. It also gave a TGI (EKVX NSCLC) greater than 100 µM, a TGI (HOP-62 NSCLC) greater than 100 µM and a TGI (SK-MEL-28 melanoma) greater than 100 µM. For the same compound, the TGI (SF-295 CNS) was greater than 100 µM, the TGI (HOP-92 NSCLC) was greater than 100 µM and the TGI (M14 melanoma) was greater than 100 µM. The TGI (U251 CNS) was greater than 100 µM, the TGI (OVCAR-8 ovarian) was greater than 100 µM and the TGI (ACHN renal) was greater than 100 µM. For the same compound, the TGI (IGROV1 ovarian) was greater than 100 µM, the TGI (UO-31 renal) was greater than 100 µM and the TGI (SR leukemia) was greater than 100 µM. For the same compound, the TGI (HCT-116 colon) was greater than 100 µM, the TGI (SNB-19 CNS) was greater than 100 µM and the TGI (HT29 colon) was greater than 100 µM. For the same compound, the TGI (UACC-62 melanoma) was greater than 100 µM, the TGI (MOLT-4 leukemia) was greater than 100 µM and the TGI (TK-10 renal) was greater than 100 µM. The TGI (KM12 colon) was greater than 100 µM, the TGI (DMS 114 small cell lung) was greater than 100 µM and the TGI (NCI-H460 lung) was greater than 100 µM. The TGI (A498 renal) was greater than 100 µM, the TGI (HL-60(TB) leukemia) was greater than 100 µM and the TGI (RXF 393 renal) was greater than 100 µM. For the same compound, the TGI (UACC-257 melanoma) was greater than 100 µM and the TGI (OVCAR-5 ovarian) was greater than 100 µM.
